Measurements: patent publication US20100069364A1, “SUBSTITUTED PYRAZOLINE COMPOUNDS WITH ACAT INHIBITION ACTIVITY, THEIR PREPARATION AND USE AS MEDICAMENTS” (LABORATORIOS DEL DR. ESTEVE, S.A., priority 2007, published 2010)
pIC50: −log10 of the molar value. Where two headings read alike, the source gives them in different places.

Legend:
[1] = tested on: T1, ACAT (Acyl CoA-Cholesterol Acyltransferase); experiment: In-vitro determination of inhibition of ACAT in hepatic microsomes, [14C]-Palmitoyl CoA substrate; format: biochemical, Wistar rats; settings: rat hepatic microsomes
T1 construct: other: 10^−4 M; rat hepatic microsomes; other: 3 × 10^−5 M; other: 10^−5 M; ot
Procedure: I. In-Vitro Determination of Inhibition of ACAT (Acyl CoA-Cholesterol Acyltransferase)
The in-vitro determination of the inhibition of the enzyme ACAT by the compounds of the invention is carried out in principle as described in the publication of Largis EE, Wang CH, DeVries VG and Schaffer SA (1989), “A Novel inhibitor of ACAT-catalyzed cholesterol esterification and cholesterol absorption”, J. Lipid Res. 30, 681-689, (1989), whereby hepatic microsomes are used. The radio-substrate used is [^14C]-Palmitoyl CoA. The respective parts of the description are hereby incorporated by reference and forms part of the present disclosure.
Briefly hepatic microsomes were prepared from the Wistar rats. Enzyme inhibition experiments were performed in presence of 18 μM [^14C]-Palmitoyl CoA as substrate. The vehicle used was 1% DMSO. Compounds to be tested were present at various concentrations and the incubation buffer used was 0.2 M Phosphate buffer, pH 7.4 at 25° C. After a 15 minutes preincubation period at 37° C. an incubation period of 10 minutes at 37° C. followed. Quantification of [^14C]Cholesterol ester was done by column chromatography.
The inhibition of the enzyme ACAT by the inventive substituted pyrazoline compounds was determined as described above.

[2] = biological target: ACAT (Acyl CoA-Cholesterol Acyltransferase); settings: reported value for the reference compound; cited from earlier work
[3] = 3 × 10^−5 M, second table (other experiment)
[4] = 3 × 10^−6 M, second table (other experiment)
[5] = 10^−4 M, second table (other experiment)
[6] = 10^−5 M, second table (other experiment)
[7] = second table (other experiment)

| Structure (SMILES) | ACAT Inhibition (%) at various concentration of example ([1]; 3 × 10^−5 M, first table) [%] | ACAT Inhibition (%) at various concentration of example ([1]; 3 × 10^−6 M, first table) [%] | ACAT Inhibition (%) at various concentration of example ([1]; 10^−4 M, first table) [%] | ACAT Inhibition (%) at various concentration of example ([1]; 10^−5 M, first table) [%] | ACAT Inhibition (%) at various concentration of example ([1]; 10^−6 M, first table) [%] | pIC50 ([1]; first table) | ACAT Inhibition (%) at various concentration of example [1, 3] [%] | ACAT Inhibition (%) at various concentration of example [1, 4] [%] | ACAT Inhibition (%) at various concentration of example ([1]; 3 × 10^−7 M, first table) [%] | ACAT Inhibition (%) at various concentration of example [1, 5] [%] | ACAT Inhibition (%) at various concentration of example [1, 6] [%] | pIC50 [1, 7] | pIC50 [2] |
| --- | --- | --- | --- | --- | --- | --- | --- | --- | --- | --- | --- | --- | --- |
| CC1(c2ccc(Cl)cc2)CC(C(=O)NC2CCCCCC2)=NN1c1ccc(Cl)cc1Cl (stereo not shown) [Example 1, 5-(4-Chloro-phenyl)-1-(2,4-dichloro-phenyl)-5-methyl-4,5-dihydro-1H-pyrazole-3-carboxylic acid cycloheptylamide] | 54 | 14 | 62 | 46 | −1 | 4.56 | – | – | – | – | – | – | – |
| CC1(c2ccc(Cl)cc2)CC(C(=O)NN2CCCCCC2)=NN1c1ccc(Cl)cc1Cl.Cl (stereo not shown) [Example 2, 5-(4-Chloro-phenyl)-1-(2,4-dichloro-phenyl)-5-methyl-4,5-dihydro-1H-pyrazole-3-carboxylic acid azepan-1-ylamide; hydrochloride] | 91 | 32 | – | 68 | 20 | 5.31 | 94 | 37 | 10 | 98 | 75 | 5.36 | – |
| CC1(c2ccc(Cl)cc2)CC(C(=O)NN2CCCCC2)=NN1c1ccc(Cl)cc1Cl.Cl (stereo not shown) [Example 3, 5-(4-Chloro-phenyl)-1-(2,4-dichloro-phenyl)-5-methyl-4,5-dihydro-1H-pyrazole-3-carboxylic acid piperidin-1-ylamide; hydrochloride] | 79 | 30 | 92 | 56 | 10 | 5.12 | 85 | 34 | – | 98 | 62 | 5.22 | – |
| CC[C@H](C)C(=O)O[C@H]1C[C@@H](C)C=C2C=C[C@H](C)[C@H](CC[C@@H]3C[C@@H](O)CC(=O)O3)[C@H]21 [Lovastatin, reference compound] | – | – | – | – | – | 4.64 | – | – | – | – | – | 4.90 | 4.54 |
